Measurements published in patent publication US8614063B2, “Methods for screening for compounds for treating cancer” (PTC Therapeutics, Inc., priority 2008, dated 2013).

Legend:
Bmi-1 = Bmi-1 Sandwich ELISA (endogenous Bmi-1 protein in HT-1080 cells); type: cell-based, human; conditions: 40-48 hours compound treatment
Experimental: In another embodiment, the levels of endogenous Bmi-1 are determined by the Bmi-1 Sandwich ELISA. A Sandwich ELISA measures the amount of antigen, in this case Bmi-1, between two layers of antibodies (i.e. capture and detection antibody). The capture antibody is immobilized in the wells of an ELISA plate and when a cell lysate or other sample is added to the plate, the specific protein of interest (Bmi-1) is bound by this capture antibody. A second antibody, called the detecting antibody, is then added, which binds to the bound protein and helps increase the signal. […] Either monoclonal or polyclonal antibodies can be used as the capture and detection antibodies in Sandwich ELISA systems. Monoclonal antibodies recognize a single epitope that allows fine detection and quantification of […] differences in antigen. A polyclonal is often used as the capture antibody to pull down as much of the antigen as possible.
HT-1080 cells were seeded at 5000 cells/well (50 μL) in 96-well tissue culture plates. After the cells become adherent (3-4 hours), 2× diluted stocks of compounds in 50 μL DMEM containing 1% DMSO (final DMSO concentration was 0.5%) were added and the plates were incubated at 37° C. under 5% CO2 for 40-48 hours
The plate was covered with a plate seal and allowed to stand overnight.
1× Lysis Buffer (40 μL) was added to each well and the plate was shaken for 5-10 minutes on an orbital shaker to allow cell lysis, then Diluent (1% BSA in PBS in 0.5% NP40) (100 μL) was added to each well.
Aliquots can be kept at 4° C. and reused after first thaw, but only for 1-2 weeks. The Bmi-1 Recombinant Protein Standard contains a GST and thus will show up on western blots around 70 Kda.
The prepared ELISA plate was washed 3× with Wash Buffer (0.05% Tween-20 in PBS). The final wash was removed from the plate and the plate was blotted dry on paper towels. Blocking Buffer (300 μL) (1% BSA in PBS) was added per well. The plate was covered with a plate seal and incubated at room temperature for 1 hour. The blocked plate was washed 3× with Wash Buffer, the final wash was removed and the plate was blotted dry on paper towels. The previously prepared samples and standards were added (at 100 μL/well) and the plate was covered with a plate seal and incubated at 4° C. overnight.
The prepared ELISA plate was removed from 4° C., incubated at room temperature for 30 minutes, then washed and blotted dry as previously described for Day 3. […] The plate was covered with a plate seal and incubated for 1.5 hrs at room temperature.
The ELISA plate was washed and blotted dry as previously described.
The plate was incubated for 20-30 minutes at room temperature in the dark, then Stop Solution (2 M sulfuric acid in water) ([…]) was added per well. The plates were read at OD450 (experimental) and OD570 (reference).

[1] = test system: firefly luciferase (fLuc) reporter gene flanked by the 5′-UTR and 3′-UTR of Bmi-1 mRNA; test: Luciferase reporter gene assay in stable 293H cells; type: cell-based; conditions: Homo sapiens, fLuc flanked by Bmi-1 5′-UTR and 3′-UTR
Source text: A high-level expression vector, pcDNA™3.1/Hygro (Invitrogen Corp., Carlsbad, Calif.) was used for preparing the constructs comprising the luciferase gene flanked by any of the Bmi-1 5′-UTR and 3′-UTR, or the Bmi-1 5′-UTR or the Bmi-1 3′-UTR of Bmi-1 mRNA. In a pcDNA™3.1/Hygro vector, the UTRs and restriction sites associated with cloning, expressing, or cloning and expressing a gene of interest or a reporter gene were removed or replaced. For each construct containing 5′-UTR sequences, the 5′-UTR sequences with the first 21 nucleotides of Bmi-1 ORF were cloned into the vector using the appropriate restriction sites so that the first 21 nucleotides were in frame with the luciferase reporter gene.
The cells were passaged every 4 days at 1:10 dilution. Cultures were kept in a 37° C. and 5% CO2 incubator. The cells were scaled-up over a three day period before performing the assay. Two confluent T175 flasks were split into twenty T175 flasks (1:10 dilution). Cells were harvested from each confluent flask by removing all of the media and adding 4 mL of warmed trypsin to dislodge the cells. After the cells were dislodged, 16 mL of selective media was added for a final volume of 20 mL. The cells were expanded by adding 2 mL of the harvested cells into ten new T175 flasks plus 25 mL of selective media. The twenty new flasks are placed into the 37° C., 5% CO2 incubator. On the day the assay was performed, the media was removed from the flasks and 3 mL of warmed trypsin was added to dislodge the cells. After the cells were dislodged, 10 mL of nonselective media was to the flask. This was repeated for all twenty flasks and combined into one flask. 100 μL of the above cell culture plus 100 μL of Trypan Blue stain was counted on a hemocytometer.
Luciferase activity was immediately assayed using a ViewLux Imaging system (Perkin Elmer).

[2] = CellTiter-Glo cytotoxicity assay, U937; type: cell-based; conditions: human, U937 cells (monocyte cell line); U937, relatively sensitive cell line
Source text: To evaluate cytotoxicity of the compounds in the 293H cell lines, the CellTiter-Glo® assay (Promega) is utilized. CellTiter-Glo® determines the number of viable cells in culture based on quantification of the ATP present, which signals the presence of metabolically active cells. A reduction in cellular ATP is indicative of a cytotoxic or cytostatic effect. Doxorubicin, a known cytotoxic compound, is used to address the sensitivity of the tested cell line. For relatively sensitive cell lines, such as U937 (a human monocyte cell line), the CC50 of doxorubicin ranges from 4 to 10 nM.

[3] = CellTiter-Glo cytotoxicity assay, Huh7; type: cell-based; conditions: human, Huh7 cells (hepatocellular carcinoma cell line); Huh7, intermediate level of sensitivity

Row | SMILES | EC50 (Bmi-1) [nM] | EC50 [1] [nM] | CC50 [2] [nM] | CC50 [3] [nM]
1 | COc1cc(Br)c(Nc2nc(-c3c(C)nc4ncccn34)cs2)c(Br)c1 [Compound 1, N-(2,6-dibromo-4-methoxyphenyl)-4-(2-methylimidazo[1,2-a]pyrimidin-3-yl)thiazol-2-amine] | 410 | 530 |  | 
2 | COc1cc(Cl)c(Nc2nc(-c3c(C)nc4ncccn34)cs2)c(Cl)c1 [Compound 2, N-(2,6-dichloro-4-methoxyphenyl)-4-(2-methylimidazo[1,2-a]pyrimidin-3-yl)thiazol-2-amine] | 660 | 910 |  | 
3 | COc1cc(F)c(Nc2nc(-c3c(C)nc4ncccn34)cs2)c(F)c1 [Compound 3, N-(2,6-difluoro-4-methoxyphenyl)-4-(2-methylimidazo[1,2-a]pyrimidin-3-yl)thiazol-2-amine] | > 3000 | 17600 |  | 
4 | Cc1cc(Br)c(Nc2nc(-c3c(C)nc4ncccn34)cs2)c(Br)c1 [Compound 4, N-(2,6-dibromo-4-methylphenyl)-4-(2-methylimidazo[1,2-a]pyrimidin-3-yl)thiazol-2-amine] | 320 | 540 |  | 
5 | Cc1nc2ncccn2c1-c1csc(Nc2c(Br)cc(Br)cc2Br)n1 [Compound 5, 4-(2-methylimidazo[1,2-a]pyrimidin-3-yl)-N-(2,4,6-tribromophenyl)thiazol-2-amine] | 710 | 800 |  | 
6 | COCCOc1cc(Br)c(Nc2nc(-c3c(C)nc4ncccn34)cs2)c(Br)c1 [Compound 6, N-(2,6-dibromo-4-(2-methoxyethoxy)phenyl)-4-(2-methylimidazo[1,2-a]pyrimidin-3-yl)thiazol-2-amine] | 1700 | 2600 |  | 
7 | COc1cc(Br)c(Nc2nc(-c3cnc4ccc(Cl)cn34)cs2)c(Br)c1 [Compound 7, 4-(6-chloroimidazo[1,2-a]pyridine-3-yl)-N-(2,6-dibromo-4-methoxyphenyl)thiazol-2-amine] | 360 | 750 |  | 
8 | Cc1cc(Br)c(Nc2nc(-c3cnc4ccc(Cl)cn34)cs2)c(Br)c1 [Compound 8, 4-(6-chloroimidazo[1,2-a]pyridine-3-yl)-N-(2,6-dibromo-4-methylphenyl)thiazol-2-amine] | 390 | 3800 |  | 
9 | COc1cc(Cl)c(Nc2nc(-c3cnc4ccc(Cl)cn34)cs2)c(Cl)c1 [Compound 9, 4-(6-chloroimidazo[1,2-a]pyridine-3-yl)-N-(2,6-dichloro-4-methoxyphenyl)thiazol-2-amine] | 1090 | 940 |  | 
10 | COc1cccc2c1C(=O)c1c(O)c3c(c(O)c1C2=O)C[C@@](O)(C(=O)CO)C[C@@H]3O[C@H]1C[C@H](N)[C@H](O)[C@H](C)O1 [doxorubicin, Doxorubicin] |  |  | 4 to 10 | 70 to 300
